What was measured:
Type in all cases: cell-based
Enterobacter cloacae = test: MIC against Gram-negative bacteria: Enterobacter cloacae; conditions: for MIC E. cloacae / MIC against E. cloacae: 5×10^5 CFU/mL; for MIC E. cloacae: two-fold serial dilution; for MIC against E. cloacae: Enterobacter cloacae
Summary of the method: (§1)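 The recombinant human-originated EGF domain proteins were serially diluted two-fold against bacteria at 5×10^5 CFU/mL in LB medium. After shaken incubation at 37° C, the lowest concentration with no bacterial growth was recorded as the MIC.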

Serratia marcescens = test: MIC against Gram-negative bacteria: Serratia marcescens; conditions: for MIC S. marcescens / MIC against S. marcescens: 5×10^5 CFU/mL; for MIC S. marcescens: two-fold serial dilution; for MIC against S. marcescens: Serratia marcescens
Summary of the method: as §1

Pseudomonas aeruginosa = test: MIC against Gram-negative bacteria: Pseudomonas aeruginosa; conditions: for MIC P. aeruginosa / MIC against P. aeruginosa: 5×10^5 CFU/mL; for MIC P. aeruginosa: two-fold serial dilution; for MIC against P. aeruginosa: Pseudomonas aeruginosa
Summary of the method: as §1

Moraxella catarrhalis = test: MIC against Gram-negative bacteria: Moraxella catarrhalis; conditions: for MIC M. catarrhalis / MIC against M. catarrhalis: 5×10^5 CFU/mL; for MIC M. catarrhalis: two-fold serial dilution; for MIC against M. catarrhalis: Moraxella catarrhalis
Summary of the method: as §1

E. coli BL21 = test: MIC against Gram-negative bacteria: E. coli BL21; conditions: for MIC E. coli BL21 / MIC against E. coli BL21: 5×10^5 CFU/mL; for MIC E. coli BL21: two-fold serial dilution
Summary of the method: as §1

Citrobacter diversus = test: MIC against Gram-negative bacteria: Citrobacter diversus; conditions: for MIC C. diversus / MIC against C. diversus: 5×10^5 CFU/mL; for MIC C. diversus: two-fold serial dilution; for MIC against C. diversus: Citrobacter diversus
Summary of the method: as §1

Proteus vulgaris = test: MIC against Gram-negative bacteria: Proteus vulgaris; conditions: for MIC P. vulgaris / MIC against P. vulgaris: 5×10^5 CFU/mL; for MIC P. vulgaris: two-fold serial dilution; for MIC against P. vulgaris: Proteus vulgaris
Summary of the method: as §1

Klebsiella pneumonia = test: MIC against Gram-negative bacteria: Klebsiella pneumonia; conditions: for MIC K. pneumonia / MIC against K. pneumonia: 5×10^5 CFU/mL; for MIC K. pneumonia: two-fold serial dilution; for MIC against K. pneumonia: Klebsiella pneumonia
Summary of the method: as §1

Proteus mirabilis = test: MIC against Gram-negative bacteria: Proteus mirabilis; conditions: for MIC P. mirabilis / MIC against P. mirabilis: 5×10^5 CFU/mL; for MIC P. mirabilis: two-fold serial dilution; for MIC against P. mirabilis: Proteus mirabilis
Summary of the method: as §1

E. coli DH5α = test: Antibacterial activity: MIC and growth curve against E. coli DH5α in 96-well plate; conditions: minimal inhibitory concentration against E. coli DH5α; 96-well plate, 5×10^5 CFU/mL, 37° C., judged after 8 h
Summary of the method: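 Log-phase bacteria (OD600 ~0.5) resuspended in LB at 5×10^5 CFU/mL, exposed to recombinant protein at 50, 25, 12.5 μg/mL final in triplicate, 37 °C shaking at 175 rpm. OD600 read every 30 min; MIC is lowest concentration showing no growth.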

Aeromonas hydrophila = test: MIC against Gram-negative bacteria: Aeromonas hydrophila; conditions: for MIC A. hydrophila / MIC against A. hydrophila: 5×10^5 CFU/mL; for MIC A. hydrophila: two-fold serial dilution; for MIC against A. hydrophila: Aeromonas hydrophila
Summary of the method: as §1

[1] = E. coli BL21, 10 h cultivation at 37° C.

PRT1144 (NANDCLSNPCLHGRCTELINEYPCSCDADGTSTQCK; listed as Homo sapiens)
MIC E. cloacae (Enterobacter cloacae; 10 h cultivation at 37° C.): 50 mg/L
MIC S. marcescens (Serratia marcescens; 10 h cultivation at 37° C.): 25 mg/L
MIC P. aeruginosa (Pseudomonas aeruginosa; 10 h cultivation at 37° C.): 50 mg/L
MIC M. catarrhalis (Moraxella catarrhalis; 10 h cultivation at 37° C.): 50 mg/L
MIC E. coli BL21 (E. coli BL21; 10 h cultivation at 37° C.): 12.5 mg/L
MIC C. diversus (Citrobacter diversus; 10 h cultivation at 37° C.): 25 mg/L
MIC P. vulgaris (Proteus vulgaris; 10 h cultivation at 37° C.): 12.5 mg/L
MIC K. pneumonia (Klebsiella pneumonia; 10 h cultivation at 37° C.): 12.5 mg/L
MIC P. mirabilis (Proteus mirabilis; 10 h cultivation at 37° C.): 25 mg/L
MIC (E. coli DH5α): 50 mg/L
MIC A. hydrophila (Aeromonas hydrophila; 10 h cultivation at 37° C.): 12.5 mg/L

PRT1085 (HARKCNETAKSYCVNGGVCYYIEGINQLSCKCPNGFFGQRCL; listed as Homo sapiens)
MIC E. cloacae (Enterobacter cloacae; 10 h cultivation at 37° C.): 12.5 mg/L
MIC S. marcescens (Serratia marcescens; 10 h cultivation at 37° C.): 25 mg/L
MIC P. aeruginosa (Pseudomonas aeruginosa; 10 h cultivation at 37° C.): 12.5 mg/L
MIC M. catarrhalis (Moraxella catarrhalis; 10 h cultivation at 37° C.): 50 mg/L
MIC E. coli BL21 (E. coli BL21; 10 h cultivation at 37° C.): 12.5 mg/L
MIC C. diversus (Citrobacter diversus; 10 h cultivation at 37° C.): 12.5 mg/L
MIC P. vulgaris (Proteus vulgaris; 10 h cultivation at 37° C.): 50 mg/L
MIC K. pneumonia (Klebsiella pneumonia; 10 h cultivation at 37° C.): 50 mg/L
MIC P. mirabilis (Proteus mirabilis; 10 h cultivation at 37° C.): 12.5 mg/L
MIC (E. coli DH5α): 25 mg/L
MIC A. hydrophila (Aeromonas hydrophila; 10 h cultivation at 37° C.): 50 mg/L

PRT1112 (GAPVCAPSPCLHDGACRDLFDAFACACGPGWEGPRCE; listed as Homo sapiens)
MIC E. cloacae (Enterobacter cloacae; 10 h cultivation at 37° C.): 50 mg/L
MIC S. marcescens (Serratia marcescens; 10 h cultivation at 37° C.): 25 mg/L
MIC P. aeruginosa (Pseudomonas aeruginosa; 10 h cultivation at 37° C.): 12.5 mg/L
MIC M. catarrhalis (Moraxella catarrhalis; 10 h cultivation at 37° C.): 12.5 mg/L
MIC E. coli BL21 (E. coli BL21; 10 h cultivation at 37° C.): 25 mg/L
MIC C. diversus (Citrobacter diversus; 10 h cultivation at 37° C.): 25 mg/L
MIC P. vulgaris (Proteus vulgaris; 10 h cultivation at 37° C.): 12.5 mg/L
MIC K. pneumonia (Klebsiella pneumonia; 10 h cultivation at 37° C.): 25 mg/L
MIC P. mirabilis (Proteus mirabilis; 10 h cultivation at 37° C.): 25 mg/L
MIC (E. coli DH5α): 50 mg/L
MIC A. hydrophila (Aeromonas hydrophila; 10 h cultivation at 37° C.): 12.5 mg/L

PRT1285 (NQDDCRDHRCQNGAQCMDEVNSYSCLCAEGYSGQLCE; listed as Homo sapiens)
MIC against E. cloacae (Enterobacter cloacae; 96-well plate, 37° C., 10 h): 12.5 mg/L
MIC against S. marcescens (Serratia marcescens; 96-well plate, 37° C., 10 h): 50 mg/L
MIC against P. aeruginosa (Pseudomonas aeruginosa; 96-well plate, 37° C., 10 h): 12.5 mg/L
MIC against M. catarrhalis (Moraxella catarrhalis; 96-well plate, 37° C., 10 h): 25 mg/L
MIC against E. coli BL21 (E. coli BL21; E. coli BL21, 96-well plate, 37° C., 10 h): 12.5 mg/L
MIC against C. diversus (Citrobacter diversus; 96-well plate, 37° C., 10 h): 12.5 mg/L
MIC against P. vulgaris (Proteus vulgaris; 96-well plate, 37° C., 10 h): 12.5 mg/L
MIC against K. pneumonia (Klebsiella pneumonia; 96-well plate, 37° C., 10 h): 100 mg/L
MIC against P. mirabilis (Proteus mirabilis; 96-well plate, 37° C., 10 h): 50 mg/L
MIC (E. coli DH5α): 12.5 mg/L
MIC against A. hydrophila (Aeromonas hydrophila; 96-well plate, 37° C., 10 h): 25 mg/L

PRT994 (DHNECLSQPCHPGSTCLDLLATFHCLCPPGLEGQLCE; listed as Homo sapiens)
MIC (Enterobacter cloacae; E. cloacae, 10 h cultivation at 37° C.): 25 mg/L
MIC (Serratia marcescens; S. marcescens, 10 h cultivation at 37° C.): 25 mg/L
MIC (Pseudomonas aeruginosa; P. aeruginosa, 10 h cultivation at 37° C.): 25 mg/L
MIC (Moraxella catarrhalis; M. catarrhalis, 10 h cultivation at 37° C.): 12.5 mg/L
MIC (E. coli BL21; [1]): 12.5 mg/L
MIC (Citrobacter diversus; C. diversus, 10 h cultivation at 37° C.): 50 mg/L
MIC (Proteus vulgaris; P. vulgaris, 10 h cultivation at 37° C.): 50 mg/L
MIC (Klebsiella pneumonia; K. pneumonia, 10 h cultivation at 37° C.): 50 mg/L
MIC (Proteus mirabilis; P. mirabilis, 10 h cultivation at 37° C.): 25 mg/L
MIC (E. coli DH5α): 50 mg/L
MIC (Aeromonas hydrophila; A. hydrophila, 10 h cultivation at 37° C.): 12.5 mg/L

PRT1461 (CNCNTSGTVDGDITCHQNSGQCKCKANVIGLRCDHCNFGFKFLRSFNDVGCEP; listed as Homo sapiens)
MIC against E. cloacae (Enterobacter cloacae; 10 h cultivation at 37° C.): 25 mg/L
MIC against S. marcescens (Serratia marcescens; 10 h cultivation at 37° C.): 25 mg/L
MIC against P. aeruginosa (Pseudomonas aeruginosa; 10 h cultivation at 37° C.): 50 mg/L
MIC against M. catarrhalis (Moraxella catarrhalis; 10 h cultivation at 37° C.): 12.5 mg/L
MIC against E. coli BL21 (E. coli BL21; [1]): 12.5 mg/L
MIC against C. diversus (Citrobacter diversus; 10 h cultivation at 37° C.): 25 mg/L
MIC against P. vulgaris (Proteus vulgaris; 10 h cultivation at 37° C.): 12.5 mg/L
MIC against K. pneumonia (Klebsiella pneumonia; 10 h cultivation at 37° C.): 12.5 mg/L
MIC against P. mirabilis (Proteus mirabilis; 10 h cultivation at 37° C.): 25 mg/L
MIC (E. coli DH5α): 25 mg/L
MIC against A. hydrophila (Aeromonas hydrophila; 10 h cultivation at 37° C.): 12.5 mg/L

PRT1432 (PARTCHSPAHSPCHIHAHCLFERNGAVSCQCNVGWAGNGNVCG; listed as Homo sapiens)
MIC against E. cloacae (Enterobacter cloacae; 10 h cultivation at 37° C.): 50 mg/L
MIC against S. marcescens (Serratia marcescens; 10 h cultivation at 37° C.): 12.5 mg/L
MIC against P. aeruginosa (Pseudomonas aeruginosa; 10 h cultivation at 37° C.): 50 mg/L
MIC against M. catarrhalis (Moraxella catarrhalis; 10 h cultivation at 37° C.): 25 mg/L
MIC against E. coli BL21 (E. coli BL21; [1]): 12.5 mg/L
MIC against C. diversus (Citrobacter diversus; 10 h cultivation at 37° C.): 12.5 mg/L
MIC against P. vulgaris (Proteus vulgaris; 10 h cultivation at 37° C.): 25 mg/L
MIC against K. pneumonia (Klebsiella pneumonia; 10 h cultivation at 37° C.): 12.5 mg/L
MIC against P. mirabilis (Proteus mirabilis; 10 h cultivation at 37° C.): 50 mg/L
MIC (E. coli DH5α): 25 mg/L
MIC against A. hydrophila (Aeromonas hydrophila; 10 h cultivation at 37° C.): 25 mg/L
